# Data: ChEMBL document CHEMBL1128939, “New simplified inhibitors of EPSP synthase: The importance of ring size for recognition at the shikimate 3-phosphate site” (Bioorg Med Chem Lett, 1996)
# pIC50, pKd, pKi: −log10 of the molar value.
# Biological target: T1, 3-phosphoshikimate 1-carboxyvinyltransferase (Escherichia coli K-12, UniProt P0A6D3)
# T1 sequence (P0A6D3 whole entry): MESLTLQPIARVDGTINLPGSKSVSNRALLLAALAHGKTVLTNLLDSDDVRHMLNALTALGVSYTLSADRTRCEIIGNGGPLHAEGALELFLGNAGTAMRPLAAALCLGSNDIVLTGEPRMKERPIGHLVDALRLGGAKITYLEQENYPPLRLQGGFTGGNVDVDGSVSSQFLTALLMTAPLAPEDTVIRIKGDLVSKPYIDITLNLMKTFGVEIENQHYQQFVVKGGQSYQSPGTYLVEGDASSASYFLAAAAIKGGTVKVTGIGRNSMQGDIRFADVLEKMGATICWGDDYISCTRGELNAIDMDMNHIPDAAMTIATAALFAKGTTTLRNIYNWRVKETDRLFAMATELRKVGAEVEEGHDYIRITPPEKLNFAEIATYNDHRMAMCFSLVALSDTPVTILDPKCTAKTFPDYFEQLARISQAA
# Test: Compound was tested for inhibitory activity against EPSP(5-enolpyruvylshikimate 3-phosphate) synthase in Escherichia coli.
# Details: not given
row,SMILES,pIC50
1,O=C(O)c1cccn1CP(=O)(O)O,1.30
2,O=C(O)c1ccc(O)c(C(O)(C(=O)O)C(=O)O)c1,1.70
3,O=C(O)C1CCC(P(=O)(O)O)N1 (stereo not drawn),1.30
4,O=C(O)c1cccc(P(=O)(O)O)n1,1.30
5,O=C(O)c1cccc(P(=O)(O)O)c1,1.30

# Same assay, conditions: read-out: Kd app
row,pKd,SMILES
1,9.22,O=C(O)C1=C[C@@H](OP(=O)(O)O)[C@@H](O)[C@H](O[C@](CF)(OP(=O)(O)O)C(=O)O)C1

# Same assay, conditions: read-out: Ki app
row,SMILES,pKi
1,C[C@@](O[C@@H]1CC(C(=O)O)=C[C@@H](OP(=O)(O)O)[C@H]1O)(C(=O)O)P(=O)(O)O,8.30
2,O=C(O)c1cc(C(O)P(=O)(O)O)c[nH]1 (stereo not drawn),7.84

# More lines, now with the values ahead:
row,pKi,SMILES
1,4.89,O=C(O)C1=C[C@@H](OP(=O)(O)O)[C@@H](O)CC1
2,5.89,O=C(O)c1cc(OC(C(=O)O)C(=O)O)cc(OC(C(=O)O)P(=O)(O)O)c1 (stereo not drawn)
3,6.28,O=C(O)c1cc(OC(C(=O)O)P(=O)(O)O)c(O)c(C(O)(C(=O)O)C(=O)O)c1 (stereo not drawn)
4,8.40,O=C(O)C1=C[C@@H](OP(=O)(O)O)[C@@H](O)[C@H](O[C@](OP(=O)(O)O)(C(=O)O)C(F)F)C1
5,7.49,O=C(O)C1=C[C@@H](OP(=O)(O)O)[C@@H](O)[C@H](O[C@](OP(=O)(O)O)(C(=O)O)C(F)(F)F)C1
